“Also recorded” adds a separate entry of the source.
How the values were obtained:
[1] = system: treatment-refractory cluster headache patients; assay: Compassionate use of bromolysergide in treatment-refractory cluster headache patients, daily headache diary (Example 3); assay type: in vivo, human; conditions: for continuous period of attack quiescence: indicates transition from chronic to episodic form
From the text: (§1) Patients referred to the Pain Clinic at the Hannover Medical School were identified with cluster headache if they met the respective diagnostic criteria of the international classification of headache disorders (Headache Classification Committee of the International Headache Society (2004) The International Classification of Headache Disorders, 2nd edn. Cephalalgia 24 Suppl 1:1-160). In addition, all patients were non-responders to verapamil and other prophylactic medications (i.e., refractory to the prophylactic medications listed in Table 1 for each patient). In accordance with German national and local ethics committee rules, all patients signed an informed consent, in which the patients declared their agreement to participate in this project on the compassionate use of bromolysergide for cluster headache. Patients kept a standardized daily diary of cluster headache symptoms starting at least two weeks prior to bromolysergide administration. Bromolysergide (hydrochloride salt) was manufactured by THCpharm GmbH (Frankfurt am Main, Germany). A purity of >99.2% was identified by HPLC and other analytical tests. Bromolysergide hydrochloride 30 μg per Kg body weight was dissolved into distilled water and then given once every 5 days for a total of 3 doses per os. Alterations in consciousness, thought disturbances, and vital signs (blood pressure, heart rate) were measured during a three to four hour observational period following administration. Patients were asked to continue completing daily headache diaries for the next months or until they experience 3 days of attacks of a starting new cluster series.

[2] = system: treatment-refractory cluster headache patients; assay: Side effects, consciousness, thought disturbances and vital signs observed three to four hours after bromolysergide administration (Example 3); assay type: in vivo, human
From the text: as §1

[3] = system: subjects diagnosed with chronic cluster headache disorder; assay: Treatment of chronic cluster headache disorder with bromolysergide, two adult subjects (Example 1); assay type: in vivo, human; conditions: once every five days
Protocol: The desired amount of bromolysergide (hydrochloride salt) was mixed with dextrose and placed into gelatin capsules for administration to subjects suffering from chronic cluster headache disorder.
Bromolysergide was administered to two adult subjects diagnosed with chronic cluster headache disorder during a cluster period. A dose of 2 mg of 2-bromolysergic acid dethylamide (30 μg/kg body weight) was administered orally to subject 1 three times, once every five days. A dose of 2.5 mg of 2-bromolysergic acid dethylamide (approximately 30 μg/kg body weight) was administered orally to subject 2 three times, once every five days.
Subjects were asked to rate their symptoms following administration of bromolysergide.

[4] = cited from earlier work
[5] = daily prophylactic administration over time; rare; cited from earlier work
[6] = subject 1, 2 mg (30 μg/kg) orally three times, for ten weeks
[7] = subject 2, 2.5 mg orally three times

SMILES: CCN(CC)C(=O)[C@@H]1C=C2c3cccc4[nH]c(Br)c(c34)C[C@H]2N(C)C1 [bromolysergide, 2-bromolysergic acid diethylamide]
- overall effect on cluster headache cycle, frequency and intensity of attacks ([1]; five treatment-refractory patients, three single doses of 30 μg/kg within 10 days, FIG. 1): can either break a cluster headache cycle or considerably improve the frequency and intensity of attacks; also recorded: quite effective at breaking cluster headache cycle; also recorded: can break a cluster headache cycle, convert a chronic cluster headache disorder into an episodic cluster headache disorder, and extend the remission period
- attack frequency ([1]; patient S1, chronic form, 30 μg/kg per os ×3): did not show this pronounced attack reduction
- decrease of attack intensity ([1]; patient S1, chronic form, 30 μg/kg per os ×3, within the first 4 months, continued to drink alcohol): about 30%
- outcome of cluster period ([1]; patient S2, episodic form, 30 μg/kg per os once every 5 days, 3 doses): termination of their cluster period
- remission period ([1]; patient S2, episodic form, 30 μg/kg per os ×3, at last follow-up and continuing): six
- attack frequency ([1]; patient S3, chronic form, 30 μg/kg per os ×3): pronounced reduction of attack frequency
- pain intensity during remaining occasional attacks ([1]; patient S3, 30 μg/kg per os ×3): such reductions of pain intensity during their remaining occasional attacks that they no longer administered an acute intervention
- continuous period of attack quiescence ([1]; patient S3, 30 μg/kg per os ×3): greater than 4 week
- attack frequency ([1]; patient S4, chronic form, 30 μg/kg per os ×3): profound reduction of attack frequency
- continuous break of attacks ([1]; patient S4, 30 μg/kg per os ×3): did not show a continuous 4-week break of attacks
- pain intensity during remaining occasional attacks ([1]; patient S4, 30 μg/kg per os ×3): such reductions of pain intensity during their remaining occasional attacks that they no longer administered an acute intervention
- attack frequency ([1]; patient S5, chronic form, 30 μg/kg per os ×3): pronounced reduction of attack frequency
- continuous period of attack quiescence ([1]; patient S5, 30 μg/kg per os ×3): greater than 4 week
- duration of side effect ([2]; each of the five subjects, 30 μg/kg per os): about 2 hours
- changes to heart rate and blood pressure ([2]; five patients, during bromolysergide treatment): No changes
- duration of mild subjective effects ([2]; five patients, 30 μg/kg per os): one to two
- hallucinogenic or psychotic effects ([2]; five patients, 30 μg/kg per os): No visual hallucinations or distortions occurred nor was there any evidence of delusional thinking or overt psychosis; also recorded: non-hallucinogenic
- other side effects ([2]; five patients, apart from very mild alterations of subjective state and mild to no sympathetic reactions): no other side effects were observed
- subjective feelings recorded ([2]; most of the patients, 30 μg/kg per os): “flabby” or “light drunk” feelings
- subjective effects noted ([2]; patient S2, 30 μg/kg per os): “funny” feeling, tense muscles, and sweating of their hands
- Vital signs ([2]; subject S1, 2.5 mg ×3): unchanged
- Side effects ([2]; subject S1, 2.5 mg ×3, cell wraps into r25: “flabby feeling”): “flabby
- Vital signs ([2]; subject S2, 2.0 mg ×3): unchanged
- Side effects ([2]; subject S2, 2.0 mg ×3, cell wraps into r25: “funny feeling”): “funny
- Side effects ([2]; subject S3, 3.1 mg ×3): “slightly
- Vital signs ([2]; subject S3, 3.1 mg ×3): unchanged
- Side effects ([2]; subject S4, 3.1 mg ×3): “slightly
- Vital signs ([2]; subject S4, 3.1 mg ×3): unchanged
- Side effects ([2]; subject S5, 2.2 mg ×3): “slightly
- Vital signs ([2]; subject S5, 2.2 mg ×3): unchanged
- rating of results (Clinical Global Impressions Scale) ([3]; subject 1, chronic cluster headache, 2 mg (30 μg/kg) orally three times): minimally improved
- duration of improvement before reverting to pre-treatment form ([3]; subject 1, 2 mg (30 μg/kg) orally three times): ten
- reduction in pain [3, 6]: 30%
- reduction of attack frequency [3, 6]: 30%
- rating of results (Clinical Global Impressions Scale) ([3]; subject 2, chronic cluster headache for more than 6 years, 2.5 mg (approximately 30 μg/kg) orally three times): marked/very much improved
- International Headache Society criteria for chronic cluster headache disorder after treatment [3, 7]: no longer met criteria
- remission of symptoms [3, 7]: complete or nearly complete remission of symptoms
- time free of attacks ([3]; subject 2, 2.5 mg orally three times, at last follow-up): more than 3 months

SMILES: CC[C@@H](CO)NC(=O)[C@@H]1C=C2c3cccc4c3c(cn4C)C[C@H]2N(C)C1 [methysergide]
- dose estimated to be equivalent to 25 micgrograms LSD ([4]; Abrahamson et al., J. Asthma Res. 3:81 (1965)): ca. 4 mg
- hallucinogenic effect ([4]; supra-therapeutic doses): hallucinogenic
- serious medical complication in the longstanding user [5]: fibrotic reactions (retroperitoneal, pulmonary, pleural, and cardiac)
